Values joined by “and” are separate entries in the source; they are usually repeats but may differ in a detail not shown here. Equal entries are not always repeated. Where two headings read alike, the source gives them in different places.
Experiments:
Format in all cases: in vivo
Ambrosia elatior = test: Greenhouse postemergence herbicidal activity on AMBEL, 20 DAT; conditions: AMBEL, postemergence, 20 DAT
Protocol: (§1) For the post emergence treatment, the plants were first grown to the 2 leaf station (GS 12) and applied at GS 12-19 depending on the species. The herbicidal compositions were suspended or emulsified in water as distribution medium and sprayed using finely distributing nozzles.
(§2) The plants have been cultivated due to their individual requirements at 10 to 25° C. and. 20 to 35° C. The plants were irrigated due to their necessity.
(§3) The respective stated components A), were formulated as a 5% by weight strength emulsion concentrate containing wettol EM 31 20% and Cyclohexanone 80%. The respective stated components B), were formulated as either emulsifiable concentrates (EC), soluble liquids (SL), suspension concentrates (SC) or soluble granules (SG) as indicated in the table below. Component A, component B and the solvent system are introduced into the spray liquor used for applying the active compound. In the examples, the solvent used was water containing 1% Dash (Agnique ME 181 37.5%, Lutensit A-EP 22.5%, and Oleic Acid 5%) and 2% ammonium suflate.
(§4) In the following experiments, the herbicidal activity for the individual herbicide compounds (solo and mixture applications), the herbicidal succession was assessed 20 days after treatment (DAT). The evaluation for the damage on undesired weeds caused by the chemical compositions was carried out using a scale from 0 to 100%, compared to the untreated control plants. Here, 0 means no damage and 100 means complete destruction of the plants. The plants used in the greenhouse experiments belonged to the following species:
(§5) The value E, which corresponds to the effect (in %) that is to be expected if the activity of the individual compounds is additive, was calculated using the method of S. R. Colby (1967) “Calculating synergistic and antagonistic responses of herbicide combinations”, Weeds 15, p. 22 ff. Colby calculation for 2 way mixtures:
(§6) where: • X=effect in percent using herbicide A at an application rate a; • Y=effect in percent using herbicide B at an application rate b; • E=expected effect (in %) of A+B at application rates a+b
(§7) If the value observed in this manner is higher than the value E calculated according to Colby, a synergistic effect is present.

Conyza canadiensis = test: Greenhouse postemergence herbicidal activity on ERICA, 20 DAT; conditions: Conyza, post-emergence, ERICA, postemergence; for inhibition at 31.25 g/ha: 31.25 gai/ha
Protocol: as §1, §2, §3, §4, §5, §6, §7

CONAR = test: Greenhouse postemergence herbicidal activity on CONAR, 20 DAT; conditions: post-emergence, Table 8, read-out: % activity, solo application (I.A)
Stellaria media = test: Greenhouse postemergence herbicidal activity on STEME, 20 DAT; conditions: STEME, postemergence
Protocol: as §1, §2, §3, §4, §5, §6, §7

Abutilon theoprasti = test: Greenhouse postemergence herbicidal activity on ABUTH, 20 DAT
Protocol: as §1, §2, §3, §4, §5, §6, §7

Polygonum persicaria = test: Greenhouse postemergence herbicidal activity on POLPE, 20 DAT; conditions: Persicaria maculosa, post-emergence, 480 h, POLPE, postemergence, 20 DAT, read-out: % activity, solo (I.A)
Protocol: as §1, §2, §3, §4, §5, §6, §7

DIGSA = test: Greenhouse postemergence herbicidal activity on DIGSA, 20 DAT; conditions: Digitaria sanguinalis, post-emergence, Table 8, read-out: % activity, solo application (I.A)
Polygonum aviculare = test: Greenhouse postemergence herbicidal activity on POLAV, 20 DAT; conditions: Polygonum aviculare, post-emergence, 480 h, read-out: % activity, solo (I.A)
Protocol: as §1, §2, §3, §4, §5, §6, §7

ALOMY = test: Greenhouse postemergence herbicidal activity on ALOMY, 20 DAT; conditions: Alopecurus myosuroides, post-emergence, Table 8, read-out: % activity, solo application (I.A)

CC(C)c1noc2nc(C3CC3)cc(C(=O)O)c12 [(I.A)]
% activity, solo (I.A) (Ambrosia elatior; 31.25 gai/ha): 50% and 25% | inhibition at 15.6 g/ha (Ambrosia elatior; Ambrosia artemisiifolia, post-emergence, 480 h, 15.6 gai/ha, read-out: % activity, solo (I.A)): 0% | inhibition at 62.5 g/ha (Ambrosia elatior; Ambrosia artemisiifolia, post-emergence, 480 h, 62.5 gai/ha, read-out: % activity, solo (I.A)): 70% | inhibition at 15.6 g/ha (Conyza canadiensis; 480 h, 15.6 gai/ha, 20 DAT, read-out: % activity, solo (I.A)): 40% | inhibition at 31.25 g/ha (Conyza canadiensis; 480 h, 20 DAT, read-out: % activity, solo (I.A)): 40% | inhibition at 62.5 g/ha (Conyza canadiensis; 480 h, 62.5 gai/ha, 20 DAT, read-out: % activity, solo (I.A)): 90% | inhibition at 31.25 g/ha (Conyza canadiensis; Table 8, read-out: % activity, solo application (I.A)): 35% | inhibition at 7.8 g/ha (CONAR; 7.8 gai/ha): 0% | inhibition at 15.6 g/ha (CONAR; 15.6 gai/ha): 0% | inhibition at 31.25 g/ha (CONAR; 31.25 gai/ha): 0% | inhibition at 62.5 g/ha (CONAR; 62.5 gai/ha): 35% | % activity, solo (I.A) (Stellaria media; 31.25 gai/ha, 20 DAT): 35% | % activity, solo (I.A) (Stellaria media; 62.5 gai/ha, 20 DAT): 70% and 95% | inhibition at 31.25 g/ha (Stellaria media; Stellaria media, post-emergence, 480 h, 31.25 gai/ha, 20 DAT, read-out: % activity, solo (I.A)): 20% | inhibition at 15.6 g/ha (Stellaria media; Stellaria media, post-emergence, 15.6 gai/ha, Table 8, read-out: % activity, solo application (I.A)): 0% | inhibition at 31.25 g/ha (Stellaria media; Stellaria media, post-emergence, 31.25 gai/ha, Table 8, read-out: % activity, solo application (I.A)): 0% | inhibition at 62.5 g/ha (Stellaria media; Stellaria media, post-emergence, 62.5 gai/ha, Table 8, read-out: % activity, solo application (I.A)): 0% | % activity, solo (I.A) (Abutilon theoprasti; 62.5 gai/ha, 20 DAT): 98% | inhibition at 7.8 g/ha (Abutilon theoprasti; Abutilon, post-emergence, 7.8 gai/ha, Table 8, read-out: % activity, solo application (I.A)): 0% | inhibition at 15.6 g/ha (Abutilon theoprasti; Abutilon, post-emergence, 15.6 gai/ha, Table 8, read-out: % activity, solo application (I.A)): 0% | inhibition at 31.25 g/ha (Abutilon theoprasti; Abutilon, post-emergence, 31.25 gai/ha, Table 8, read-out: % activity, solo application (I.A)): 20% | inhibition at 62.5 g/ha (Abutilon theoprasti; Abutilon, post-emergence, 62.5 gai/ha, Table 6, read-out: % activity, solo application (I.A)): 70% | inhibition at 62.5 g/ha (Abutilon theoprasti; Abutilon, post-emergence, 62.5 gai/ha, Table 8, read-out: % activity, solo application (I.A)): 30% | inhibition at 125 g/ha (Abutilon theoprasti; Abutilon, post-emergence, 480 h, 125 gai/ha, 20 DAT, read-out: % activity, solo (I.A)): 73% | inhibition at 250 g/ha (Abutilon theoprasti; Abutilon, post-emergence, 480 h, 250 gai/ha, 20 DAT, read-out: % activity, solo (I.A)): 92% | inhibition at 15.6 g/ha (Polygonum persicaria; 15.6 gai/ha): 70% | inhibition at 31.25 g/ha (Polygonum persicaria; 31.25 gai/ha): 80% | inhibition at 31.25 g/ha (DIGSA; 31.25 gai/ha): 0% | inhibition at 62.5 g/ha (DIGSA; 62.5 gai/ha): 0% | inhibition at 15.6 g/ha (Polygonum aviculare; 15.6 gai/ha): 10% | inhibition at 31.25 g/ha (Polygonum aviculare; 31.25 gai/ha): 35% | inhibition at 62.5 g/ha (Polygonum aviculare; 62.5 gai/ha): 50% | inhibition at 125 g/ha (Polygonum aviculare; 125 gai/ha): 90% | inhibition at 15.6 g/ha (ALOMY; 15.6 gai/ha): 0% | inhibition at 31.25 g/ha (ALOMY; 31.25 gai/ha): 0% | inhibition at 62.5 g/ha (ALOMY; 62.5 gai/ha): 20%
